Assay results from ChEMBL document CHEMBL1201862, “PubChem BioAssay data set” (2004).
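In this assay, cells in 96-well plates receive the compound at five concentrations for 48 hours. Endpoints are linearly interpolated between the surrounding concentrations. The concentration for 50% growth inhibition is given as GI50.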 The source made the active and inactive calls. No stated cut-off is given here; in the data, active = GI50 up to about 1.1 µM and inactive = higher.

Experiments:
Test in all cases: inhibition of tumour cell growth, NCI panel, 48 h
A498 = system: A498
A549 = system: A549
CAKI-1 = system: CAKI-1
CCRF-CEM = system: CCRF-CEM
COLO 205 = system: COLO 205
DLD-1 = system: DLD-1
DMS-114 = system: DMS-114
DMS-273 = system: DMS-273
EKVX = system: EKVX
HCC 2998 = system: HCC 2998
HCT-116 = system: HCT-116
HCT-15 = system: HCT-15
HL-60 = system: HL-60
HOP-18 = system: HOP-18
HOP-62 = system: HOP-62
HOP-92 = system: HOP-92
HT-29 = system: HT-29
IGROV-1 = system: IGROV-1
K562 = system: K562
KM-20L2 = system: KM-20L2
KM12 = system: KM12
LOX IMVI = system: LOX IMVI
M19-MEL = system: M19-MEL
MCF7 = system: MCF7
MOLT-4 = system: MOLT-4
Malme-3M = system: Malme-3M
NCI-H226 = system: NCI-H226
NCI-H23 = system: NCI-H23
NCI-H460 = system: NCI-H460
NCI-H522 = system: NCI-H522
NCI/ADR-RES = system: NCI/ADR-RES
OVCAR-3 = system: OVCAR-3
OVCAR-4 = system: OVCAR-4
OVCAR-5 = system: OVCAR-5
OVCAR-8 = system: OVCAR-8
RPMI-8226 = system: RPMI-8226
RXF 393 = system: RXF 393
SF-268 = system: SF-268
SF-295 = system: SF-295
SF-539 = system: SF-539
SK-MEL-28 = system: SK-MEL-28
SK-MEL-2 = system: SK-MEL-2
SK-MEL-5 = system: SK-MEL-5
SK-OV-3 = system: SK-OV-3
SN12C = system: SN12C
SNB-19 = system: SNB-19
SNB-75 = system: SNB-75
SNB-78 = system: SNB-78
SW-620 = system: SW-620
U-251 = system: U-251
UACC-257 = system: UACC-257
UACC-62 = system: UACC-62
UO-31 = system: UO-31
XF498 = system: XF498

Measured: GI50

C=CC12CN(C)C3C4COC(CC41)C1(C(=O)Nc4ccccc41)C32 (centres undefined)
inactive: A498 9.29 µM | A549 166 µM | CAKI-1 > 200 µM | CCRF-CEM 96.6 µM | COLO 205 > 149 µM | DLD-1 198 µM | DMS-114 > 144 µM | DMS-273 > 200 µM | EKVX > 200 µM | HCC 2998 > 151 µM | HCT-116 158 µM | HL-60 152 µM | HOP-18 > 200 µM | HOP-62 > 147 µM | HOP-92 > 140 µM | HT-29 > 145 µM | IGROV-1 > 200 µM | K562 165 µM | KM-20L2 > 151 µM | KM12 168 µM | LOX IMVI > 150 µM | M19-MEL > 148 µM | MCF7 > 200 µM | MOLT-4 > 200 µM | Malme-3M 174 µM | NCI-H226 6.67 µM | NCI-H23 > 173 µM | NCI-H460 166 µM | NCI-H522 44.7 µM | NCI/ADR-RES > 165 µM | OVCAR-3 > 200 µM | OVCAR-4 > 200 µM | OVCAR-5 > 200 µM | OVCAR-8 > 200 µM | RPMI-8226 > 195 µM | RXF 393 > 179 µM | SF-268 173 µM | SF-295 > 200 µM | SF-539 > 200 µM | SK-MEL-28 175 µM | SK-MEL-2 > 148 µM | SK-MEL-5 > 200 µM | SK-OV-3 > 20 µM | SN12C > 200 µM | SNB-19 > 200 µM | SNB-75 146 µM | SNB-78 176 µM | SW-620 174 µM | U-251 > 156 µM | UACC-257 > 200 µM | UACC-62 > 178 µM | UO-31 > 181 µM | XF498 21.5 µM
> 195 µM: HCT-15
